This is an account of results in US11708366B2, “Heteroaryl substituted spiropiperidinyl derivatives and pharmaceutical uses thereof” (Novartis AG, priority 2020, dated 2023).

One experiment deals with LTC4S (Homo sapiens (Human), UniProt Q16873). Description: Human whole blood HTRF assay (LTC4 release after calcium ionophore A23187). It counts as cell-based. As to conditions: human whole blood HTRF IC50, human whole blood diluted 1:3, 4 h incubation, calcium ionophore A23187 stimulation, LTC4 by HTRF. On the procedure: B. Human Whole Blood HTRF Assay
LTC4 synthase catalyzes the conversion of Leukotriene A4 (LTA4) to Leukotriene C4 (LTC4) in the presence of reduced glutathione (GSH) as a co-substrate. For testing the inhibition of LTC4S, compounds are prepared for either eight-point or sixteen-point dose response studies in 384-well Labcyte low dead volume (LDV) plates. For eight-point dose response studies, compounds are diluted 1:5 starting at 1 μM concentration in 90% DMSO. […] Compounds are studied in duplicates. Ten wells are filled with 90% DMSO which correspond to the stimulated and unstimulated control wells. […] The morning of the assay, whole blood is collected from three human donors. Donors must be non-smokers and must not have taken NSAIDs within the 48 hours prior to blood collection. The amount of blood collected per donor depends on the amount of compounds to be tested and the dose response format in which they are to be studied (about 8 mL of whole blood for either 22 compounds in 8-point dose response format or 11 compounds in 16-point dose response format). […] 50 μL of diluted blood are then dispensed into each assay plate well with pre-dispensed compounds and DMSO for the stimulated and unstimulated controls using a Thermo Scientific™ Multidrop™ Combi reagent dispenser, and incubated at 37° C. for 4 hours. Calcium ionophore A23187 is used to induce a rapid increase in intracellular levels of Ca^2+. The Ca^2+ functions as a universal second messenger in various immune cells, such as T cells, B cells and mast cells, and is used to induce degranulation and release of eicosanoids, including LTC4, by cells contained in the whole blood samples. […] All but the unstimulated control wells are subsequently stimulated by dispensing 1 μL of the 0.5 mg/mL calcium ionophore suspension using the Thermo Scientific™ Multidrop™ Combi reagent dispenser. Plates are incubated for 15 minutes at 37° C. Plates are then centrifuged at 300 g for 10 minutes at room temperature to pellet blood cells and stop the reaction. […] Plates are sealed and stored at −80° C.
In order to measure the amount of LTC4 released by cells in the human blood samples during calcium ionophore stimulation, supernatants are analyzed using the Cisbio LTC4 homogeneous time-resolved FRET (HTRF) kit (Cisbio #64LC4PEH). […] Ten serially diluted standard curve solutions are also dispensed in duplicate into each plate as instructed in the protocol. Blank controls and cryptate control wells are also prepared. Then, 5 μL of anti-LTC4-d2 working solution are dispensed into all the wells, but the cryptate control wells. Subsequently, 5 μL of anti-LTC4-Eu3+ cryptate working solution are dispensed into all the wells. Plates are then covered with a lid and incubated at room temperature for one hour with gentle orbital shaking (˜450 rpm). […] HTRF ratios are calculated for each well by dividing the 665 nm intensity by the 620 nm intensity, and multiplying the resulting ratio by 10,000. LTC4 standard curves are interpolated for each plate and used to convert the HTRF ratio readouts into the amount of LTC4 present in each well (in ng/mL). Parametric curve fitting is used to obtain inhibition curves and IC50 values.
Take `Cn1nc(-n2cc(C(F)(F)F)cn2)cc(N2CCC3(CCCC(=O)N3c3ccc(F)c(F)c3)CC2)c1=O` [Example 14, 1-(3,4-difluorophenyl)-9-(2-methyl-3-oxo-6-(4-(trifluoromethyl)-1H-pyrazol-1-yl)-2,3-dihydropyridazin-4-yl)-1,9-diazaspiro[5.5]undecane-2-one]: the IC50 amounted to 1 nM.

Take `O=C1CCCC2(CCN(c3cc(OC4CCOCC4)nn(Cc4ccccc4)c3=O)CC2)N1c1ccc(F)c(F)c1` [Example 15a, 9-(2-benzyl-3-oxo-6-((tetrahydro-2H-pyran-4-yl)oxy)-2,3-dihydropyridazin-4-yl)-1-(3,4-difluorophenyl)-1,9-diazaspiro[5.5]undecan-2-one]: the IC50 amounted to 1 nM.

Regarding `O=C1CCCC2(CCN(c3cc(=O)n(Cc4ccccc4)nc3OC3CCOCC3)CC2)N1c1ccc(F)c(F)c1` [Example 15b, 9-(1-benzyl-6-oxo-3-((tetrahydro-2H-pyran-4-yl)oxy)-1,6-dihydropyridazin-4-yl)-1-(3,4-difluorophenyl)-1,9-diazaspiro[5.5]undecan-2-one], the concentration for half-maximal inhibition (IC50) worked out at 180 nM.

Turning to `O=C1CCCC2(CCN(c3cc(OC4CCOCC4)n[nH]c3=O)CC2)N1c1ccc(F)c(F)c1` [Example 16, 1-(3,4-difluorophenyl)-9-(3-oxo-6-((tetrahydro-2H-pyran-4-yl)oxy)-2,3-dihydropyridazin-4-yl)-1,9-diazaspiro[5.5]undecan-2-one], the IC50 amounted to 16 nM.

Consider `Cn1nc(OC2CCOCC2)cc(N2CCC3(CCCC(=O)N3c3ccc(F)c(F)c3)CC2)c1=O` [Example 17, 1-(3,4-difluorophenyl)-9-(2-methyl-3-oxo-6-((tetrahydro-2H-pyran-4-yl)oxy)-2,3-dihydropyridazin-4-yl)-1,9-diazaspiro[5.5]undecan-2-one], for which the IC50 is 9 nM.

The same experiment, now with this note: human whole blood diluted 1:3, 4 h incubation, calcium ionophore A23187 stimulation, LTC4 by HTRF; read-out: human whole blood HTRF IC50.
In the case of `O=C1CCCC2(CCN(c3cc(O[C@@H]4COC[C@H]4F)nc(CO)n3)CC2)N1c1ccc(F)c(F)c1` (racemic) [Example 108, rac-1-(3,4-diflurophenyl)-9-(6-(((3R,4R)-4-fluorotetrahydrofuran-3-yl)oxy)-2-(hydroxymethyl)pyrimidin-4-yl)-1,9-diazaspiro[5.5]undecan-2-one], the IC50 was 22 nM.

Take `CCOC(=O)c1nc(O[C@@H]2COC[C@H]2F)cc(N2CCC3(CCCC(=O)N3c3ccc(F)c(F)c3)CC2)n1` (racemic) [Example 111, rac ethyl 4-(1-(3,4-difluorophenyl)-2-oxo-1,9-diazaspiro[5.5]undecane-9-yl)-6-(((3S,4S)-4-fluorotetrahydrofuran-3-yl)oxy)pyrimidine-2-carboxylate]: the IC50 was 17 nM.

For the compound `Nc1nc(N2CCC3(CC2)CC(F)CC(=O)N3c2ccc(F)c(F)c2)cc(C(F)(F)C(F)(F)F)n1` (racemic) [Example 117, rac-9-(2-amino-6-(perfluoroethyl)pyrimidin-4-yl)-1-(3,4-difluorophenyl)-4-fluoro-1,9-diazaspiro[5.5]undecan-2-one], the IC50 came to 18 nM.

For `O=C1CC(F)CC2(CCN(c3cc(OC4CCOCC4)ncn3)CC2)N1c1ccc(F)c(F)c1` (racemic) [Example 118, rac-1-(3,4-difluorophenyl)-4-fluoro-9-(6-((tetrahydro-2H-pyran-4-yl)oxy)pyrimidin-4-yl)-1,9-diazaspiro[5.5]undecan-2-one], the IC50 is 8 nM.

On to `Nc1nc(O[C@H](C2COC2)C(F)(F)F)cc(N2CCC3(CCCC(=O)N3c3ccc(F)c(F)c3)CC2)n1` (single isomer, unassigned) [Example 89b, (R)-9-(2-amino-6-(2,2,2-trifluoro-1-(oxetan-3-yl)ethoxy)pyrimidin-4-yl)-1-(3,4-difluorophenyl)-1,9-diazaspiro[5.5]undecan-2-one or (S)-9-(2-amino-6-(2,2,2-trifluoro-1-(oxetan-3-yl)ethoxy)pyrimidin-4-yl)-1-(3,4-difluorophenyl)-1,9-diazaspiro[5.5]undecan-2-one], for which the IC50 was determined as 5 nM.

`C[C@@H](Oc1cc(N2CCC3(CCCC(=O)N3c3ccc(F)c(F)c3)CC2)nc(CO)n1)C(F)(F)F` (single isomer, unassigned) [Example 110b, (R)-1-(3,4-difluorophenyl)-9-(2-(hydroxymethyl)-6-((1,1,1-trifluoropropan-2-yl)oxy)pyrimidin-4-yl)-1,9-diazaspiro[5.5]undecan-2-one or (S)-1-(3,4-difluorophenyl)-9-(2-(hydroxymethyl)-6-((1,1,1-trifluoropropan-2-yl)oxy)pyrimidin-4-yl)-1,9-diazaspiro[5.5]undecan-2-one]: the concentration for half-maximal inhibition (IC50) is 5 nM.

`Nc1nc(OC2CCOCC2)cc(N2CCC3(CC2)C[C@H](F)CC(=O)N3c2ccc(F)c(F)c2)n1` (single isomer, unassigned) [Example 116a, (R)-9-(2-amino-6-((tetrahydro-2H-pyran-4-yl)oxy)pyrimidin-4-yl)-1-(3,4-difluorophenyl)-4-fluoro-1,9-diazaspiro[5.5]undecan-2-one, or (S)-9-(2-amino-6-((tetrahydro-2H-pyran-4-yl)oxy)pyrimidin-4-yl)-1-(3,4-difluorophenyl)-4-fluoro-1,9-diazaspiro[5.5]undecan-2-one]: the IC50 came to 13 nM.

For the compound `Nc1nc(OC2CCOCC2)cc(N2CCC3(CC2)C[C@H](F)CC(=O)N3c2ccc(F)c(F)c2)n1` (single isomer, unassigned) [Example 116b, (S)-9-(2-amino-6-((tetrahydro-2H-pyran-4-yl)oxy)pyrimidin-4-yl)-1-(3,4-difluorophenyl)-4-fluoro-1,9-diazaspiro[5.5]undecan-2-one, or (R)-9-(2-amino-6-((tetrahydro-2H-pyran-4-yl)oxy)pyrimidin-4-yl)-1-(3,4-difluorophenyl)-4-fluoro-1,9-diazaspiro[5.5]undecan-2-one], the IC50 worked out at 33 nM.

For `O=C1CCCC2(CCN(c3cc(N4CC5(CCC5)C4)nn(Cc4ccccc4)c3=O)CC2)N1c1ccc(F)c(F)c1` [Example 10, 9-(2-benzyl-3-oxo-6-(2-azaspiro[3.3]heptan-2-yl)-2,3-dihydropyridazin-4-yl)-1-(3,4-difluorophenyl)-1,9-diazaspiro[5.5]undecan-2-one], the IC50 is 5 nM.

As to `O=C1CCCC2(CCN(c3cc(-c4ccc(F)cc4)n[nH]c3=O)CC2)N1c1ccc(F)c(F)c1` [Example 11, 1-(3,4-difluorophenyl)-9-(6-(4-fluorophenyl)-3-oxo-2,3-dihydropyridazin-4-yl)-1,9-diazaspiro[5.5]undecane-2-one], the half-inhibitory concentration (IC50) is 6 nM.

In the case of `O=C1CCCC2(CCN(c3cc(-n4cc(C(F)(F)F)cn4)n[nH]c3=O)CC2)N1c1ccc(F)c(F)c1` [Example 12, 1-(3,4-difluorophenyl)-9-(3-oxo-6-(4-(trifluoromethyl)-1H-pyrazol-1-yl)-2,3-dihydropyridazin-4-yl)-1,9-diazaspiro [5.5] undecane-2-one], the IC50 was found to be 2 nM.

For the compound `O=C1CCCC2(CCN(c3cc(OCC(F)(F)F)n[nH]c3=O)CC2)N1c1ccc(F)c(F)c1` [Example 13, 1-(3,4-difluorophenyl)-9-(3-oxo-6-(2,2,2-trifluoroethoxy)-2,3-dihydropyridazin-4-yl)-1,9-diazaspiro[5.5]undecan-2-one], the IC50 came out at 36 nM.

Take `O=C1CCCC2(CCN(c3nc(C4=CCC(F)(F)CC4)c[nH]c3=O)CC2)N1c1ccc(F)c(F)c1` [Example 18, 9-(6-(4,4-difluorocyclohex-1-en-1-yl)-3-oxo-3,4-dihydropyrazin-2-yl)-1-(3,4-difluorophenyl)-1,9-diazaspiro[5.5]undecane-2-one]: the IC50 was 2 nM.

`Cn1cc(C2=CCC(F)(F)CC2)nc(N2CCC3(CCCC(=O)N3c3ccc(F)c(F)c3)CC2)c1=O` [Example 19, 9-(6-(4,4-difluorocyclohex-1-en-1-yl)-4-methyl-3-oxo-3,4-dihydropyrazin-2-yl)-1-(3,4-difluorophenyl)-1,9-diazaspiro[5.5]undecane-2-one]: the IC50 turned out to be 3 nM.

For the compound `O=C1CCCC2(CCN(c3cc(Oc4cccc(Cl)c4)cc[n+]3[O-])CC2)N1c1ccc(F)c(F)c1` [Example 34, 4-(3-chlorophenoxy)-2-(1-(3,4-difluorophenyl)-2-oxo-1,9-diazaspiro[5.5]undecan-9-yl)pyridine 1-oxide], the IC50 stood at 2 nM.
